Experimental data taken from a melting point compilation (Tetko et al.; mined from patent text by program, amines drawn as free bases though some values may be those of a salt).

Row | melting point [°C] | SMILES
1 | 159 | Cn1cc(-c2cc(-c3cnc4[nH]cc(C(F)(F)F)c4c3)ccn2)n(-c2ccc(C(C)(C)C#N)cc2)c1=O
2 | 106 | COC(=O)COC(=O)C(c1ccccc1)N1CCN(c2ccc(NC(=O)c3ccccc3-c3ccc(C(F)(F)F)cc3)cc2)CC1 (stereo not given)
3 | 102 to 103 | CCCCn1c(=O)c2cn(S(=O)(=O)CCCCl)nc2n(CCCC)c1=O
4 | 93 to 95 | CC(CCl)n1c(C(F)(F)F)nc2cc(F)c(-n3c(=O)cc(C(F)(F)F)n(C)c3=O)cc21 (stereo not given)
5 | 60 | COc1cc(C(=O)NS(=O)(=O)c2ccccc2C)ccc1Cc1cn(C(C)C)c2ccc(CCCC(=O)N(C)C)cc12
6 | 160 to 162 | COc1cc(C)cc(S(=O)(=O)c2cccc(F)c2C#N)c1
7 | 250 to 252 | CCOC(=O)CN1C(=O)C(=S2CN(CC)c3ccccc32)SC1=S (stereo not given)
8 | 222 to 226 | COc1ccc2c(c1[N+](=O)[O-])CN(S(C)(=O)=O)CC(=O)N2
9 | 175 | CC(=O)OC1CSC(Oc2cncc(-c3ccsc3)c2)C(OC(C)=O)C1OC(C)=O (stereo not given)
10 | 173 | COC(=O)[C@@H](N)Cc1cc(I)c(Oc2ccc(O)cc2)c(I)c1
11 | 84 | COC(=O)c1ccc2c(C(=O)c3ccccc3)c(C(=O)OC)ccc2c1
12 | 195 | CC(=O)N1CCN=C1Nc1cc(C)nn1-c1ccc(Cl)cc1C
13 | 201 to 203 | CCOC(=O)c1ccc(-c2cnc3c(c2)N(Cc2cc(F)ccc2F)C(=O)CN3)cc1
14 | 281 to 283 | CN1C2=C(CSC2)C(=O)Nc2cc(Cl)c(Cl)cc21
15 | 214 to 215 | O=C1CCC(c2ccc(-n3cnc(CO)c3)cc2)=NN1
16 | 130 to 131 | CCCc1nn(CC)c2c(=S)[nH]c(-c3ccccc3OCC)nc12
17 | 120 to 135 | COc1cc2c(cc1Nc1ncc(Cl)c(N[C@@H]3CCCC[C@H]3NS(C)(=O)=O)n1)CCN(CC(=O)N1CCCC1)CC2
18 | 248 | O=C(Nc1cc(-c2ccccc2)on1)Nc1cccc2c1C1CCCCN1C2=O (stereo not given)
19 | 153 to 154 | O=C(O)CCc1c(-c2ccc(F)cc2)[nH]c2ccc(Cl)cc12
20 | 98 to 99 | COC(=O)CC(CC(=O)OC)Sc1cc(OC)cc(OC)c1

Row | melting point [°C] | SMILES
21 | 140 | CCOC(=O)C(C(=O)CCC(C)C)C1c2ccccc2C(=O)N1c1ccc2ccc(F)nc2n1 (stereo not given)
22 | 192 to 195 | Nc1cc(Nc2ccccc2)nc2c1ncn2C1OC(CO)C(O)C1O (stereo not given)
23 | 79 | c1ccc(N2CCN(CCc3ccc4ccccc4n3)CC2)cc1
24 | 180 to 182 | COc1cc(Nc2c(C#N)cnc3cc(C#CCN4CCN(C)CC4)sc23)cc(OC)c1OC
25 | 250 | CC(C)(C)OC(=O)Nc1cnc(Cl)cc1C(=O)O
26 | > 210 | COc1cc2c(c3c1C1CCC3CC1)OC(CN)C2 (stereo not given)
27 | 210 to 212 | CC(C)(C)CC(=O)NC[C@H]1CN(c2ccc(N3CCC(=CC#N)CC3)c(F)c2)C(=O)O1
28 | 236 to 238 | CC(=O)NC1c2cc3nonc3cc2OC(C)(C)C1OC(C)=O (stereo not given)
29 | 168 to 170 | Nc1ncnn1C(=S)NC1CCCCC1
30 | 155 | CS(=O)(=O)c1ccc2c(c1)C(=O)CC2
31 | 281 | Cc1c(C(=O)Nc2ccc(N3CCN(C4CCSCC4)CC3)c(C#N)c2)cnn1-c1ccc(Cl)cc1
32 | 201 to 203 | COC(=O)c1c2cc(I)ccc2nc2ccc(I)cc12
33 | 198 to 200 | Cc1nc2ccc(-c3ccc(OCC4(N)COC4)cc3)nn2c1-c1cnc(N)c(C(F)(F)F)c1
34 | 93 to 95 | CCCc1c(OCCCSc2ccc(C(=O)COC(C)=O)cn2)ccc(C(C)=O)c1O
35 | > 270 | CSc1ncc(C(=O)O)c(Nc2ccc3[nH]ncc3c2)n1
36 | 239 to 241 | CS(=O)(=O)c1ccc(-c2cnn(CC(=O)c3ccc(C(=O)O)cc3)c(=O)c2-c2ccc(F)cc2)cc1
37 | 307 to 311 | CCOC(=O)N1CCc2[nH]c(=O)n3nc(-c4ccccc4F)nc3c2C1
38 | 228 to 229 | CC(=O)NCC1CN(c2c(F)c(N)c3c(=O)c(C(=O)O)cn(C4CC4)c3c2F)CCO1 (stereo not given)
39 | 209 | O=C(c1nc(-c2ccccc2)nc2ccccc12)N1CCC(O)CC1
40 | 191 to 193 | O=C1CC[C@@H](C(=O)N[C@@H](CSSC[C@H](NC(=O)[C@@H]2CCC(=O)N2)C(=O)O)C(=O)O)N1

Row | melting point [°C] | SMILES
41 | 73 to 76 | COc1cccc2sc(C3(O)CCN(C(=O)OC(C)(C)C)C(C)C3)cc12 (stereo not given)
42 | 148 to 150 | COc1ccc2c(c1)c(Cc1cc(=O)n(-c3ccccc3)[nH]1)c(C)n2C(=O)c1ccc(Cl)cc1
43 | 41 to 42 | CCOC(=O)c1sc(Cl)nc1-c1cccc(C)c1
44 | 153 to 157 | O=CNc1nc(OCc2ccccc2)ncc1F
45 | 85 to 87 | COc1ccc2cc(CO)ccc2c1Br
46 | 159 to 162 | Cc1nc2cnccc2n1-c1ccc(C2=Nc3cc(Cl)c(Cl)cc3N3CCN=C3C2)cc1
47 | 85 to 87 | COc1ccc(C=CC(=O)c2ccc(OCC3CO3)cc2)cc1 (stereo not given)
48 | 293 to 295 | Cn1cccc1-c1nc2c(N[C@H]3[C@@H](C(N)=O)[C@@H]4C=C[C@H]3C4)c(Br)cnc2[nH]1
49 | 101 to 104 | O=C(Nc1ccc(OC(F)(F)F)cc1)N1CC(c2cc(C(F)(F)F)ns2)C(c2ccc(Cl)cc2)=N1 (stereo not given)
50 | 250 to 253 | Cc1c(Cc2ccccc2)c(=O)n(C)c2cc(OCc3nnn[nH]3)cc(OCc3nnn[nH]3)c12
51 | 107 to 109 | CCOC(=O)C1=C(C)NC(CSCC2CO2)=C(C(=O)OCC)C1c1cccc([N+](=O)[O-])c1 (stereo not given)
52 | 60 to 62 | CC(=O)O[C@@H](Cc1ccc(OCCN2CCC(C)(C)c3cc(C(=O)c4ccccc4)ccc32)cc1)C(=O)O
53 | 92 to 94 | CC(C)Oc1ccc(CCCOc2nn(C)cc2CC(=O)O)c(Oc2ncc(C(F)(F)F)cc2Cl)c1
54 | 231 to 232 | O=S(=O)(O)CCCCN1CCN(C(c2ccc(F)cc2)c2ccccn2)CC1 (stereo not given)
55 | 127 to 132 | CN(C)Cc1ccc(CSCCNc2ncc(N)c(=O)[nH]2)o1
56 | 100 to 110 | Cc1cc(SC2=C(O)CC(CCc3ccccn3)(C(C)C)OC2=O)c(C(C)(C)C)cc1CO (stereo not given)
57 | 160 to 164 | CCOC(=O)c1cc2cc(Br)ccc2[nH]1
58 | 83 to 86 | COCCNC(=S)n1nc(Oc2c(Cl)cc(C(F)(F)F)cc2Cl)cc1C

Continued, compound first:

Row | SMILES | melting point [°C]
59 | CCOC(=O)CCNC(=O)C(=Cc1ccccc1)CSC(=O)c1ccccc1 | < 50
60 | Cc1ccccc1C(C#N)=C1C=CC(=NOP(=O)(c2ccccc2)c2ccccc2)S1 | 165 to 167
61 | CCOc1cc(=O)[nH]c2ccccc12 | 223 to 226
62 | COc1ccc(C(=O)c2cccc([N+](=O)[O-])c2)cc1 | 88 to 89
63 | CC(C)(C)c1cccc(C(C)(C)C)c1OS(C)(=O)=O | 83
64 | NC(=O)c1cn(CCOC(=O)Oc2ccccc2)nc1[N+](=O)[O-] | 108 to 110
65 | O=C(O)c1ccc2cn[nH]c2c1 | > 250
66 | CCCCCCC[C@@H](O)[C@@H](NCc1ccccc1)C(=O)O | 197 to 199
67 | CC(C)[C@H](NC(=O)OCc1ccccc1)C(=O)N(CC(=O)O)Cc1ccccc1 | 41 to 45
68 | CCCn1c(=O)c2[nH]c(C3(N)CCCCC3)nc2n(CCC)c1=O | 172 to 173
69 | CC(=O)N1OCC(=O)N(CO)C1c1ccccc1 (stereo not given) | 123 to 126
70 | NNc1cc2ccccc2[nH]1 | 165 to 167
71 | O=C(O)C1Cc2cccc(-c3ccccc3)c2C1 (stereo not given) | 97 to 102
72 | CCC1(CC)CCSc2c(CC#Cc3ccc(C=O)cc3)cccc21 | 55 to 63
73 | Clc1nc2ccccc2cc1CBr | 125
74 | CCCc1nc(C)nc(NN)c1Cc1ccc(-c2ccccc2C#N)cc1 | 156
75 | Nc1cccc(Oc2ccc(-c3ccc(Oc4cccc(N)c4)cc3)cc2)c1 | 144 to 146
76 | Cc1cc(O)c(Cc2ccc(C(C)C)cc2)c(C)c1N(Cc1ccccc1)C(=O)CC(C)(C)C | 167 to 168
77 | Cn1cc2c3c(c(F)cc2n1)CCC3=CC#N | 249 to 252
78 | CCCCCCCCC1(C#N)CCC(c2ccc(-c3ccc(CCCC)cc3)cc2)CC1 (stereo not given) | 52
79 | O=C(NCC(C(=O)Nc1n[nH]c(=S)s1)c1ccccc1)OCc1ccccc1 (stereo not given) | 201 to 202

Row | SMILES | melting point [°C]
80 | Cc1sc(-c2ccccc2)nc1COc1ccc(COc2ncccc2CC#N)cc1 | 161 to 162
81 | CCCn1c(=O)c(-c2ccccc2)c2n(c1=O)CC=CS2 | 142 to 144
82 | NC(=S)/C=C1\CCc2ccc(F)cc21 | 178 to 179
83 | O=C(O)c1ccc2c(c1)S(=O)(=O)c1ccccc1O2 | 286
84 | CC(C)(NC(=O)Cc1cccc2ccccc12)C(O)c1ccccc1 (stereo not given) | 106 to 107
85 | Brc1ccc2scnc2c1 | 104 to 106
86 | CC1(C)OC(=O)Nc2ccc(/C(=C/C#N)c3ccccc3)cc21 | 205 to 206
87 | CCCCC(=N)NC(=O)Nc1ccccc1[N+](=O)[O-] | 130 to 132
88 | Nc1nc(N)nc(N2CCSCC2)n1 | 237 to 239
89 | O=C(O)c1ccc(-c2cc3ccccc3[nH]c2=S)cc1 | > 300
90 | I/C(=C/C=C(/I)SCc1ccccc1)SCc1ccccc1 | 111 to 112
91 | Cc1ccc(NC(=O)c2ccccc2[N+](=O)[O-])cc1C(F)(F)F | 172 to 173
92 | CCCc1c(O)ccc2[nH]c(C(=O)OCC)cc12 | 185 to 186
93 | CCCCCCCCCCOc1ccc(C(=O)O)o1 | 124 to 126
94 | Cc1ccccc1CCCc1c(C)nc(N)nc1N | 213 to 215
95 | CCCCn1nc(CCC)nc1Cc1ccc(-c2ccccc2-c2nnn[nH]2)nc1 | 164 to 166
96 | C=CCC(C(N)=O)C(CC(C)C)C(=O)NC1N=C(c2cccnc2)c2ccccc2N(C)C1=O (stereo not given) | 251 to 253
97 | O=C(c1ccco1)N1N=CCC1c1ccccc1 (stereo not given) | 136 to 137
98 | CC(C)(C)OC(=O)N(C[C@H](O)COc1ccc(OCc2ccccc2)cc1)C1CN(C(c2ccccc2)c2ccccc2)C1 | 95 to 96
99 | O=c1c2c(-c3ccccc3)n[nH]c2c2cccnc2n1-c1ccccc1 | > 300
100 | CCCCCCCCCC(=O)N(O)CCCCCC | 37
